The text below walks through data of ChEMBL document CHEMBL3864193 (Bioorg Med Chem, 2016).

The nature of experiment [1]: Cytotoxicity against human A549 cells after 72 hrs by MTT assay. The class given is functional, cell-based. Conditions: A549, 72 h.
A short description of experiment [2]: cells. Conditions: Homo sapiens, PC-3, 72 h.
Description: Cytotoxicity against human PC3 cells after 72 hrs by MTT assay
A short description of experiment [3]: cells. Conditions: Homo sapiens, MCF7, 72 h.
Description: Cytotoxicity against human MCF7 cells after 72 hrs by MTT assay
Experiment [4] deals with Vascular endothelial growth factor receptor 2 (Homo sapiens, UniProt P35968). The experiment in a line: Inhibition of VEGFR2 (unknown origin) by mobility shift/LanthaScreen assay. On the technique in general: Time-resolved FRET reads energy transfer from a long-lived donor to a nearby acceptor.
Sequence of Vascular endothelial growth factor receptor 2 (P35968 whole entry): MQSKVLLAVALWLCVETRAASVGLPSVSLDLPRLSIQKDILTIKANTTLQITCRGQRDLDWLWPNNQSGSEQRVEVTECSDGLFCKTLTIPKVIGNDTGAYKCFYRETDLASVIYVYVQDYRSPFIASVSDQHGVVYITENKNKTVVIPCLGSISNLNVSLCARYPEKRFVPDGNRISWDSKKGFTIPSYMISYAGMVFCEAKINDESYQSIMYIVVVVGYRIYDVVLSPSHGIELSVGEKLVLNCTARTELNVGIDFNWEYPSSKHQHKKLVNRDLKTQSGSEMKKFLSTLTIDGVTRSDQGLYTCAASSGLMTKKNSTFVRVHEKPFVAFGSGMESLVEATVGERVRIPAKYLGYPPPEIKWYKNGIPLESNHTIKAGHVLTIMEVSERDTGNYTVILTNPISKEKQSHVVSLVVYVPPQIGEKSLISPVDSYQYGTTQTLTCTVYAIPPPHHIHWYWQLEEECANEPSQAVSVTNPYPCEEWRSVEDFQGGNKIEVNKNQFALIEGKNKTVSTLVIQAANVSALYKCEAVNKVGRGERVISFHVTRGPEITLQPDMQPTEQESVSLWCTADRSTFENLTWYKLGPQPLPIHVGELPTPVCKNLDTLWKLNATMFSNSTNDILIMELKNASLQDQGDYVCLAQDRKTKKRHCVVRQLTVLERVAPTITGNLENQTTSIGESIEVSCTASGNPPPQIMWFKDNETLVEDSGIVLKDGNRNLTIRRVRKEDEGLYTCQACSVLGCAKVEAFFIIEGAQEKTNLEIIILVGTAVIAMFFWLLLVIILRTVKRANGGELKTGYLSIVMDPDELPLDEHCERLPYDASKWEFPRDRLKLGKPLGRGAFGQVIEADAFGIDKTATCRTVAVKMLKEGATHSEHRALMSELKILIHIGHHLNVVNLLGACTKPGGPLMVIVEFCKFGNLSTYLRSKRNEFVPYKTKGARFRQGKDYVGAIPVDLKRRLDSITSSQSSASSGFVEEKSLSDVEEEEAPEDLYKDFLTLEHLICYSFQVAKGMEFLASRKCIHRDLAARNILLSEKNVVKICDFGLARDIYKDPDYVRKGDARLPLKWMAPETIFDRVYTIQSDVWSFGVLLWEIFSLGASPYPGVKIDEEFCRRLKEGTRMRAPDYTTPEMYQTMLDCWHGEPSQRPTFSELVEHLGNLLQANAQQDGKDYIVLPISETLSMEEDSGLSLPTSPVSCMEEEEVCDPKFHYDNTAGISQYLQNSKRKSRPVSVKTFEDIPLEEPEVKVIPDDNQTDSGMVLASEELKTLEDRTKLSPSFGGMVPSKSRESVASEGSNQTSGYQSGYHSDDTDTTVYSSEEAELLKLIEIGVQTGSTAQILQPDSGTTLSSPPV

What is called IC50 is the point on the concentration scale where inhibition reaches its midpoint. In the case of `CNC(=O)c1cc(Oc2ccc(NC(=O)c3cc(-c4ccc(C)cc4)ncn3)cc2)ccn1`, the IC50 was above 100 µM in experiment [1], above 100 µM in experiment [2] and 34.6 µM in experiment [3].

Turning to `CNC(=O)c1cc(Oc2ccc(NC(=O)c3cc(-c4ccc(OC)cc4)ncn3)cc2)ccn1`, the concentration for half-maximal inhibition (IC50) was determined as 13.5 µM in experiment [1], 38.8 µM in experiment [2] and 29.2 µM in experiment [3].

With `CNC(=O)c1cc(Oc2ccc(NC(=O)c3cc(-c4ccc(C)cc4)ncn3)cc2F)ccn1`, the IC50 in experiment [1] worked out at 13.2 µM; in experiment [2] it was 40.2 µM; in experiment [3] it was 19.2 µM.

Consider `CNC(=O)c1cc(Oc2ccc(NC(=O)c3cc(-c4ccc(F)cc4)ncn3)cc2)ccn1`, for which the concentration for half-maximal inhibition (IC50) in experiment [1], in experiment [2] and in experiment [3] was above 100 µM in each case.

In the case of `CNC(=O)c1cc(Oc2ccc(NC(=O)c3cc(-c4ccccc4)ncn3)cc2F)ccn1`, the IC50 stood at 23.2 µM in experiment [1], 44.3 µM in experiment [2] and 32.4 µM in experiment [3].

For `CNC(=O)c1cc(Oc2ccc(NC(=O)c3nccc(-c4ccc([N+](=O)[O-])cc4)n3)cc2)ccn1`, the IC50 in experiment [1], in experiment [2] and in experiment [3] was above 100 µM in each case.

For `CCc1ccc(-c2cc(C(=O)Nc3ccc(Oc4ccnc(C(=O)NC)c4)c(F)c3)ncn2)cc1`, the IC50 turned out to be 3.39 µM in experiment [1], 1.2 µM in experiment [4], 15.6 µM in experiment [2] and 7.63 µM in experiment [3].

Turning to `CNC(=O)c1cc(Oc2ccc(NC(=O)c3cc(-c4ccc(Cl)cc4)ncn3)cc2)ccn1`, the IC50 in experiment [1], in experiment [2] and in experiment [3] was above 100 µM in each case.

On to `CNC(=O)c1cc(Oc2ccc(NC(=O)c3nccc(-c4ccc(OC)cc4)n3)cc2F)ccn1`, for which the figures for the concentration for half-maximal inhibition (IC50) in experiment [1], in experiment [2] and in experiment [3] were 16.6 µM, 24.3 µM and above 100 µM, respectively.

In the case of `CNC(=O)c1cc(Oc2ccc(NC(=O)c3cc(-c4ccc(C(F)(F)F)cc4)ncn3)cc2F)ccn1`, the IC50 in experiment [1], in experiment [2] and in experiment [3] was above 100 µM in each case.

With `CNC(=O)c1cc(Oc2ccc(NC(=O)c3cc(-c4ccc(Br)cc4)ncn3)cc2F)ccn1`, the concentration for half-maximal inhibition (IC50) in experiment [1], in experiment [2] and in experiment [3] was above 100 µM each time.

As for `CNC(=O)c1cc(Oc2ccc(NC(=O)c3cc(-c4ccc(Cl)cc4)ncn3)cc2F)ccn1`, the IC50 in experiment [1], in experiment [2] and in experiment [3] was above 100 µM in each case.

Consider `CCc1ccc(-c2cc(C(=O)Nc3ccc(Oc4ccnc(C(=O)NC)c4)cc3)ncn2)cc1`, for which the IC50 in experiment [1] was 13.3 µM; in experiment [4], 3.6 µM; in experiment [2], 29.3 µM; in experiment [3], 6.35 µM.

For the compound `CNC(=O)c1cc(Oc2ccc(NC(=O)c3cc(-c4ccc(F)cc4)ncn3)cc2F)ccn1`, the half-inhibitory concentration (IC50) in experiment [1], in experiment [2] and in experiment [3] was above 100 µM each time.

On to `CNC(=O)c1cc(Oc2ccc(NC(=O)c3cc(-c4ccc(Br)cc4)ncn3)cc2)ccn1`, for which the concentration for half-maximal inhibition (IC50) in experiment [1], in experiment [2] and in experiment [3] was above 100 µM each time.

In the case of `CNC(=O)c1cc(Oc2ccc(NC(=O)c3nccc(-c4cccc(Cl)c4)n3)cc2)ccn1`, the results for the IC50 in experiment [1], in experiment [2] and in experiment [3] were above 100 µM, 20.8 µM and above 100 µM, respectively.

On to `CNC(=O)c1cc(Oc2ccc(NC(=O)c3cc(-c4ccccc4)ncn3)cc2)ccn1`, for which the values for the concentration for half-maximal inhibition (IC50) in experiment [1], in experiment [2] and in experiment [3] were 27.1 µM, 44.2 µM and 18.2 µM, respectively.

For the compound `CNC(=O)c1cc(Oc2ccc(NC(=O)c3nccc(-c4ccc(OC)cc4)n3)cc2)ccn1`, the figures for the IC50 in experiment [1], in experiment [2] and in experiment [3] were 11.1 µM, 14.2 µM and 35.2 µM, respectively.

Regarding `CNC(=O)c1cc(Oc2ccc(NC(=O)c3cc(-c4ccc(C(F)(F)F)cc4)ncn3)cc2)ccn1`, the IC50 in experiment [1], in experiment [2] and in experiment [3] was above 100 µM each time.

On to `CNC(=O)c1cc(Oc2ccc(NC(=O)c3nccc(-c4ccc(C)cc4)n3)cc2F)ccn1`, for which the figures for the IC50 in experiment [1], in experiment [2] and in experiment [3] were 33.2 µM, 28.4 µM and 69.2 µM, respectively.

For the compound `CNC(=O)c1cc(Oc2ccc(NC(=O)c3nccc(-c4ccc(C)cc4)n3)cc2)ccn1`, the concentration for half-maximal inhibition (IC50) in experiment [1] is 28.4 µM; in experiment [2] it was 13.1 µM; in experiment [3], 44.2 µM.

On to `CNC(=O)c1cc(Oc2ccc(NC(=O)c3cc(-c4ccc(OC)cc4)ncn3)cc2F)ccn1`, for which the half-maximal inhibitory concentration (IC50) in experiment [1] is 34.5 µM; in experiment [2], 56.2 µM; in experiment [3], 46.2 µM.

`CNC(=O)c1cc(Oc2ccc(NC(=O)c3nccc(-c4ccccc4)n3)cc2)ccn1`: the IC50 in experiment [1] came to 26.2 µM; in experiment [2], 7.31 µM; in experiment [3], 39.1 µM.
